From ChEMBL document CHEMBL4311992, “Discovery of 3-(((9H-purin-6-yl)amino)methyl)-4,6-dimethylpyridin-2(1H)-one derivatives as novel tubulin polymerization inhibitors for treatment of cancer” (Eur J Med Chem, 2019)
The source made the active and inactive calls. The calls are words filed in the database; no cut-off is given here.

Legend:
[1] = Renal toxicity in nude BALB/c mouse at 80 mg/kg, po administered once daily for 4 weeks measured post-last dose by hematoxylin and eosin staining-based assay; format: organism-based; conditions: in vivo, 672 h
[2] = target: Misshapen-like kinase 1 (Homo sapiens) (UniProt Q8N4C8); test: Inhibition of recombinant human MINK (1 to 310 residues) assessed as residual activity at 10 uM using myelin basic protein as substrate measured after 40 mins in presence of [gamma33P]ATP by scintillation counting method
[3] = target: Serine/threonine-protein kinase Chk2 (Homo sapiens) (UniProt O96017); test: Inhibition of recombinant human CHK2 (5 to end residues) assessed as residual activity at 10 uM using KKKVSRSGLYRSPSMPENLNRPR as substrate measured after 40 mins in presence of [gamma33P]ATP by scintillation counting method
Chain of Serine/threonine-protein kinase Chk2 (Homo sapiens) (O96017 whole entry): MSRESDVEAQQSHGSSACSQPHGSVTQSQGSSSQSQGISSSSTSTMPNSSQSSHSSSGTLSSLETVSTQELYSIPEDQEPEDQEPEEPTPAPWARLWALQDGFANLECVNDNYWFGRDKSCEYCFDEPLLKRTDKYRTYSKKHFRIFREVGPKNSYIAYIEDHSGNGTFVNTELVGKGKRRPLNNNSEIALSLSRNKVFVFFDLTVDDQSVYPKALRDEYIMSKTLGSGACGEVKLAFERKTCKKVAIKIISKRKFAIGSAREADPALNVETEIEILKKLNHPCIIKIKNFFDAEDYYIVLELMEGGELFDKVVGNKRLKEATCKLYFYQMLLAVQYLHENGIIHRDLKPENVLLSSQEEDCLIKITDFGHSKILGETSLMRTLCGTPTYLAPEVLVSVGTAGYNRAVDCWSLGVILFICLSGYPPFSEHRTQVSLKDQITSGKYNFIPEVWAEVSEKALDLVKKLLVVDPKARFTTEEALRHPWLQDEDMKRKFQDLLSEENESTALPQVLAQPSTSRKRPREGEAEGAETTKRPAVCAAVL

[4] = Toxicity in nude BALB/c mouse assessed as change in globulin level at 40 to 80 mg/kg, po once daily for 4 weeks measured post-last dose; format: organism-based; conditions: in vivo, 672 h
[5] = target: Insulin receptor-related protein (Homo sapiens) (UniProt P14616); test: Inhibition of recombinant human IRR (943 to 1266 residues) assessed as residual activity at 10 uM using myelin basic protein as substrate measured after 40 mins in presence of [gamma33P]ATP by scintillation counting method
Chain of Insulin receptor-related protein (Homo sapiens) (P14616 27-742 limits assumed): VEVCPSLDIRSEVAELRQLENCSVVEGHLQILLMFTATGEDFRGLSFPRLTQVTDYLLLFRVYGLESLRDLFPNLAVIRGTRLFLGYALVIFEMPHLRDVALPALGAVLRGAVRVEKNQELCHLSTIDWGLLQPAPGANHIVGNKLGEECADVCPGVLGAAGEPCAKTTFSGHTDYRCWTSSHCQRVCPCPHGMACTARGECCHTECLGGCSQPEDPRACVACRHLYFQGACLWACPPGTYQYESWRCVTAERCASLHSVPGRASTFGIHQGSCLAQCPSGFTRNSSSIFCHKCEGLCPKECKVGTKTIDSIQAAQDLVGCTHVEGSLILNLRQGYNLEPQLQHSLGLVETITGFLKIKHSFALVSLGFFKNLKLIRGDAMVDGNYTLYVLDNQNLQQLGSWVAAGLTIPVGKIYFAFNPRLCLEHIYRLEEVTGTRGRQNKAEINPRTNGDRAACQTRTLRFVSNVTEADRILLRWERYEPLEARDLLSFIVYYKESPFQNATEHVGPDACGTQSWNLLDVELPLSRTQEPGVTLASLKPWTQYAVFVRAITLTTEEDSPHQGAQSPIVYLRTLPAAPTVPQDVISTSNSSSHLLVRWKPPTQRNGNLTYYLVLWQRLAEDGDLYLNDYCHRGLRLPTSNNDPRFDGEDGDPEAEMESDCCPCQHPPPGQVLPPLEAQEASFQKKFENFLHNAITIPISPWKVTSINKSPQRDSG
Chain of Insulin receptor-related protein (Homo sapiens) (P14616 747-1297 limits assumed): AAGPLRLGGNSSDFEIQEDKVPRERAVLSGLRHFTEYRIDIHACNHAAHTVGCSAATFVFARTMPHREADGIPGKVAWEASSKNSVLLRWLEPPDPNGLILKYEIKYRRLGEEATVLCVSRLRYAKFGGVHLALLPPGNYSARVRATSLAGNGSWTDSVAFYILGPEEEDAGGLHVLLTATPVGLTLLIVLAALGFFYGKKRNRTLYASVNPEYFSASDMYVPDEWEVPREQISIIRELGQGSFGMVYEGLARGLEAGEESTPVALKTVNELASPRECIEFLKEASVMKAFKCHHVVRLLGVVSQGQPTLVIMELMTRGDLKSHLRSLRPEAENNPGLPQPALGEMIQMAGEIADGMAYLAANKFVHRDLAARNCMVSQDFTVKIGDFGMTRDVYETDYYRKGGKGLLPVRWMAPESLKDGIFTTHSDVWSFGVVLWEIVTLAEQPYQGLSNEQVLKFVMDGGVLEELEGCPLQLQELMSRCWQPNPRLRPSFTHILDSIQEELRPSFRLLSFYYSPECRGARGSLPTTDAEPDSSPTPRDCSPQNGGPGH

[6] = target: Calcium/calmodulin-dependent protein kinase type IV (Homo sapiens) (UniProt Q16566); test: Inhibition of recombinant full-length human CaMK4 assessed as residual activity at 10 uM using calmodulin as substrate measured after 40 mins in presence of [gamma33P]ATP by scintillation counting method
[7] = test system: Receptor tyrosine-protein kinase erbB-2 (Homo sapiens), P04626 [G778D]; test: Inhibition of recombinant human ErbB2 G778D mutant (676 to end residues) assessed as residual activity at 10 uM using poly (Glu, Tyr) 4:1 as substrate measured after 40 mins in presence of [gamma33P]ATP by scintillation counting method
Tubulin (Homo sapiens) = Tubulin (Homo sapiens) (UniProt P68371+Q9H4B7+P0DPH7+P68366+Q13509+Q71U36+P04350+Q3ZCM7+P07437+P68363+Q9BQE3+Q6PEY2+Q13885+Q9BVA1+Q9BUF5); test: Disruption of microtubule network in human HCT116 cells assessed as microtubule disorganization at 50 nM for 18 hrs by FITC/DAPI staining-based confocal microscopic analysis; format: cell-based
[8] = target: Activated CDC42 kinase 1 (Homo sapiens) (UniProt Q07912); test: Inhibition of recombinant human ACK1 (1 to 389 residues) assessed as residual activity at 10 uM using EFPIYDFLPAKKK as substrate measured after 40 mins in presence of [gamma33P]ATP by scintillation counting method
Chain of Activated CDC42 kinase 1 (Homo sapiens) (Q07912 whole entry, looked up, the tested form may be a part): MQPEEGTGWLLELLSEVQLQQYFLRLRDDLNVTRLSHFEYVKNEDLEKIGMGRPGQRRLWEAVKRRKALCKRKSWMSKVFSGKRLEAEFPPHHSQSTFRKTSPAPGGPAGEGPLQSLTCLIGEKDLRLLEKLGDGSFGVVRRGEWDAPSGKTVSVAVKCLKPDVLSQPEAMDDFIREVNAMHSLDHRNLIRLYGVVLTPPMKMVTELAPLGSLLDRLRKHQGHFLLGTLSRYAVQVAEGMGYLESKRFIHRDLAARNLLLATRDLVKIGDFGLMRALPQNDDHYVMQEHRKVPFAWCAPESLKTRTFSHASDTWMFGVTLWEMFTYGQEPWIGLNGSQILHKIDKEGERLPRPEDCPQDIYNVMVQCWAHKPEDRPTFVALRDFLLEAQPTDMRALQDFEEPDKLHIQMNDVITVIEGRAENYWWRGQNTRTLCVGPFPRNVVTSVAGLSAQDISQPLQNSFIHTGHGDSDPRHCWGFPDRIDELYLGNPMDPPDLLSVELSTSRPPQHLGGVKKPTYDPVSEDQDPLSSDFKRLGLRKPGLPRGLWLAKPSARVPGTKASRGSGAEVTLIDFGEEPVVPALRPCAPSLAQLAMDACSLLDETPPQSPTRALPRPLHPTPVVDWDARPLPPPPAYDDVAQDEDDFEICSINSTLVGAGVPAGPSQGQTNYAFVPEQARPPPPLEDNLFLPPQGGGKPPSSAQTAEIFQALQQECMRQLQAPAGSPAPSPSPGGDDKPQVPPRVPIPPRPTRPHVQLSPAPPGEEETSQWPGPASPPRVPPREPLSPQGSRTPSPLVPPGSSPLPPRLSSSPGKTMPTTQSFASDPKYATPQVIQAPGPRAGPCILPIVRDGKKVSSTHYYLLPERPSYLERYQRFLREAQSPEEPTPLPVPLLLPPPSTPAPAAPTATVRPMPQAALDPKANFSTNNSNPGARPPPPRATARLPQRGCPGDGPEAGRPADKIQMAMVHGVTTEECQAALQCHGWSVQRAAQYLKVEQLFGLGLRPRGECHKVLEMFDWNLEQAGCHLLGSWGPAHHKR

[9] = target: 5'-AMP-activated protein kinase catalytic subunit alpha-1 (Homo sapiens) (UniProt Q13131); test: Inhibition of recombinant full-length human AMPKalpha1 assessed as residual activity at 10 uM using AMARAASAAALARRR as substrate measured after 40 mins in presence of [gamma33P]ATP by scintillation counting method
Mus musculus = species: Mus musculus; test: Inhibition of recombinant full-length mouse PI3K p110alpha/p85alpha E542K mutant assessed as residual activity at 10 uM using phosphatidylinositol-4, 5-bisphosphate as substrate measured after 40 mins by HTRF assay
[10] = target: Bone morphogenetic protein receptor type-2 (Homo sapiens) (UniProt Q13873); test: Inhibition of recombinant human BMPR2 (172 to 734 residues) assessed as residual activity at 10 uM using myelin basic protein as substrate measured after 120 mins in presence of [gamma33P]ATP by scintillation counting method
HCT-116 = test: Induction of apoptosis in human HCT116 cells assessed as viable cells at 25 nM measured after 48 hrs by Annexin V-FITC/propidium iodide staining-based flow cytometry (reference value: 94.5%); format: functional; conditions: HCT-116, 48 h, read-out: Activity
[11] = target: Serine/threonine-protein kinase SIK2 (Homo sapiens) (UniProt Q9H0K1); test: Inhibition of human SIK2 (1 to 276 residues) using KKKVSRSGLYRSPSMPENLNRPR as substrate measured after 40 mins in presence of [gamma33P]ATP by scintillation counting method; set-up: scale not given: the % may be the effect or the level left
Chain of Serine/threonine-protein kinase SIK2 (Homo sapiens) (Q9H0K1 whole entry, looked up, the tested form may be a part): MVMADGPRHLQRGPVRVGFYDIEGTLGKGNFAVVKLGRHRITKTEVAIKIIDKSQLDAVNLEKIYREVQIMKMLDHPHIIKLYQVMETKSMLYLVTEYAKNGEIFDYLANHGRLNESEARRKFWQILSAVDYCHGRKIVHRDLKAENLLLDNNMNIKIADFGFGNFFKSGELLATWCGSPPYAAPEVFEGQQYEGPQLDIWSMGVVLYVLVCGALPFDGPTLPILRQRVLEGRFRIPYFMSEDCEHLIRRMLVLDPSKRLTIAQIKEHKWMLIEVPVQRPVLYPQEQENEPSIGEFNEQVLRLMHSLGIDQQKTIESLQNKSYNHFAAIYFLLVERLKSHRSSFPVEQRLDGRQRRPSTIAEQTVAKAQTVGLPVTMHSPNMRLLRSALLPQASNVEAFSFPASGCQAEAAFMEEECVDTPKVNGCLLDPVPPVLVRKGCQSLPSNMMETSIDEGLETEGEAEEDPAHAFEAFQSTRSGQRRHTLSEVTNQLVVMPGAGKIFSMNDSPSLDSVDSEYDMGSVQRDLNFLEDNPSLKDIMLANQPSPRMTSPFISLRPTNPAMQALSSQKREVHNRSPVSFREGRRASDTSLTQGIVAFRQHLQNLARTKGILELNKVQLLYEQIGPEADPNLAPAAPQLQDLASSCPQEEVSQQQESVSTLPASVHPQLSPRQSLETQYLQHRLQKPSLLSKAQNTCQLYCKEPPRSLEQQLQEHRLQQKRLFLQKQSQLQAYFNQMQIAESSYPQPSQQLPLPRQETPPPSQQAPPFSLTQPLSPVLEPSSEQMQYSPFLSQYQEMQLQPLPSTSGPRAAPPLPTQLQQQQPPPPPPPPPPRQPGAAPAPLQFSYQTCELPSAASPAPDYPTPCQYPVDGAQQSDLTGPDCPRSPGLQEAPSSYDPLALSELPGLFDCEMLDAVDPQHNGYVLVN

[12] = test system: Serine/threonine-protein kinase Chk2 (Homo sapiens), O96017 [R145W]; test: Inhibition of recombinant human CHK2 R145W mutant (5 to end residues) assessed as residual activity at 10 uM using KKKVSRSGLYRSPSMPENLNRPR as substrate measured after 40 mins in presence of [gamma33P]ATP by scintillation counting method
Chain of Serine/threonine-protein kinase Chk2 (Homo sapiens), O96017 [R145W] (O96017 whole entry R145W): as the sequence (O96017 whole entry) above, with R145W counted along it

[13] = target: Rhodopsin kinase GRK1 (Homo sapiens) (UniProt Q15835); test: Inhibition of recombinant full-length human GRK1 assessed as residual activity at 10 uM using KKKKERLLDDRHDSGLDSMKDEE as substrate measured after 40 mins in presence of [gamma33P]ATP by scintillation counting method
Chain of Rhodopsin kinase GRK1 (Homo sapiens) (Q15835 whole entry, the tested form may be a part): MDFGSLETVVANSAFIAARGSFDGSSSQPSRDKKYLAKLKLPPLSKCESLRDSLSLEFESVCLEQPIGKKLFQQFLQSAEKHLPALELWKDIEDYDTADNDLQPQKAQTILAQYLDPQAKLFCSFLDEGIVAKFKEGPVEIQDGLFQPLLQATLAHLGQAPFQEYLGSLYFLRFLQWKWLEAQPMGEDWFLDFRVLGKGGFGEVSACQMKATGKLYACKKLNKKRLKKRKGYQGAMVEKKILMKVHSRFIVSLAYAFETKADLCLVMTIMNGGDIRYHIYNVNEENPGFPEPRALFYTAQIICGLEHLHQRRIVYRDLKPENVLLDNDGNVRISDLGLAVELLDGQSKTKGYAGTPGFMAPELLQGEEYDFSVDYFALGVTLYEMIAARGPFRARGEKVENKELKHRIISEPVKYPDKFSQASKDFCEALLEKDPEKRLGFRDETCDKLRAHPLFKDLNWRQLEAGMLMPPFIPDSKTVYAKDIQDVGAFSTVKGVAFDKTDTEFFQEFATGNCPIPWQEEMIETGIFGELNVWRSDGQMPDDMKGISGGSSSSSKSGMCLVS

[14] = target: Tyrosine-protein kinase HCK (Homo sapiens) (UniProt P08631); test: Inhibition of recombinant human activated HCK (230 to 497 residues) assessed as residual activity at 10 uM using GGMEDIYFEFMGGKKK as substrate measured after 40 mins in presence of [gamma33P]ATP by scintillation counting method
[15] = target: Serine/threonine-protein kinase D3 (Homo sapiens) (UniProt O94806); test: Inhibition of recombinant full-length human PKD3 assessed as residual activity at 10 uM using KKLRRTLSVA as substrate measured after 40 mins in presence of [gamma33P]ATP by scintillation counting method
[16] = test system: Serine/threonine-protein kinase N1 (Homo sapiens), Q16512 [V901I]; test: Inhibition of human PRK1 V901I mutant (498 to end residues) using KKLNRTLSFAEPG as substrate measured after 40 mins in presence of [gamma33P]ATP by scintillation counting method; set-up: scale not given: the % may be the effect or the level left
[17] = Toxicity in nude BALB/c mouse xenografted with human HCT116 cells assessed as change in body weight at 40 mg/kg, po administered once daily for 4 weeks measured every 3 days during compound dosing; format: organism-based; conditions: in vivo
[18] = target: Tyrosine-protein kinase Lck (Homo sapiens) (UniProt P06239); test: Inhibition of recombinant full-length human Lck assessed as residual activity at 10 uM using KVEKIGEGTYGVV as substrate measured after 40 mins in presence of [gamma33P]ATP by scintillation counting method
[19] = target: Dual specificity mitogen-activated protein kinase kinase 3 (Homo sapiens) (UniProt P46734); test: Inhibition of human MKK3 assessed as residual activity at 10 uM by radiometric method
Chain of Dual specificity mitogen-activated protein kinase kinase 3 (Homo sapiens) (P46734 whole entry): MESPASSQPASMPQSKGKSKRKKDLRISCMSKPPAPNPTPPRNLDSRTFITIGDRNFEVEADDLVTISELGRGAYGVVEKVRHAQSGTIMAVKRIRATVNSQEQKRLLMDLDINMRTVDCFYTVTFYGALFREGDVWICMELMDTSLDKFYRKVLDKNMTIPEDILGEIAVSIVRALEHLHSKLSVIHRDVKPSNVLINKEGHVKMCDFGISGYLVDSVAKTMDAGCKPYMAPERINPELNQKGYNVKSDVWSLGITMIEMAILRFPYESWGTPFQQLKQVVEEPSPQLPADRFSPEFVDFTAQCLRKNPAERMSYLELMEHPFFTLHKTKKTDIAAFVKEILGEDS

SW-620 = test: Induction of apoptosis in human SW620 cells assessed as increase in Bax expression up to 200 nM measured after 48 hrs by Western blot analysis; format: functional, cell-based
[20] = target: BMP-2-inducible protein kinase (Homo sapiens) (UniProt Q9NSY1); test: Inhibition of recombinant human BIKepsilon assessed as residual activity at 10 uM using peptide substrate measured after 120 mins in presence of [gamma33P]ATP by scintillation counting method

Cc1cc(C)c(CNc2nc(Cl)nc3c2ncn3C2CCCC2)c(=O)[nH]1
Activity [1]: Non-Toxic
Activity [2]: 94%
Activity [3]: 105%
Activity [4]: Non-Toxic
Activity [5]: 102%
Activity [6]: 121%
Activity [7]: 109%
Activity (Tubulin (Homo sapiens)): Active
Activity [8]: 118%
Activity [9]: 120%
Activity (Mus musculus): 95%
Activity [10]: 109%
viability at 0.025 µM (HCT-116): 95.9%
Activity [11]: 97%
Activity [12]: 103%
Activity [13]: 90.5%
Activity [14]: 115%
Activity [15]: 106%
Activity [16]: 98.5%
Activity [17]: Non-Toxic
Activity [18]: 84.5%
Activity [19]: 100%
Activity (SW-620): Active
Activity [20]: 83%
